The test system of data set [1] is MCF-7 cells. The data set can be described thus: Cellular uptake of metformin sulfonamides in MCF-7 cells (HPLC). Particulars: for uptake into MCF-7 cells / uptake in MCF-7 cells relative to metformin: 800 μmol/L; for uptake into MCF-7 cells: 10 min incubation, 37 °C; for uptake in MCF-7 cells relative to metformin: fold higher than parent drug metformin. Type of data set: in vitro ADME, human. The essentials:
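MCF-7 or MDA-MB-231 cells exposed to 10−3000 μmol/L compound in HBSS at 37 °C for 10 min, washed with ice-cold HBSS, then lysed in 0.1 M NaOH. Intracellular compound quantified by reversed-phase HPLC-UV at 235 nm against standards spiked on cell layers. Protein by Bradford; quadruplicates.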

Data set [2] deals with MDA-MB-231 cells. The data set is described as follows: Uptake in the presence of OCT and MATE inhibitors, MDA-MB-231 cells. Type of data set: in vitro ADME, human. Particulars: for interactions with OCT, PMAT and MATE1 transporters, MDA-MB-231: summary from uptake with inhibitors. In a few lines:
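Cells incubated 10 min at 37 °C in HBSS with metformin sulfonamide derivatives at 400 and 800 μmol/L plus disopyramide, cimetidine, lopinavir or methenamine as OCT/MATE/PMAT inhibitors. Intracellular compound concentration then determined by the previously described protocol.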

For data set [3], the system named is MDA-MB-231 cells. The data set is described as follows: Cell viability WST-1 assay, MDA-MB-231. Particulars: Homo sapiens, WST-1, 24 h; for viability at 3000 µM: MDA-MB-231, 24 h, 3000 µmol/L, read-out: percentage of viability of MDA-MB-231 cells. Format: cell-based. In a few lines:
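Cells seeded 1 × 10^4/well, grown 24 h, then treated with compounds for 24 h at 37 °C. WST-1 reagent added for 1.5 h, absorbance at 450 nm, normalised to medium-only control (n = 8). IC50 from nonlinear log(concentration)-response fit.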

Data set [4] relates to MCF-7 cells. The data set is described as follows: Cell cycle analysis (PI, flow cytometry), MCF-7. Format: cell-based, human. The note with it: MCF-7, 24 h. How it is done:
MCF-7 and MDA-MB-231 cells were seeded in 6-well plates at a density of 2 × 10^5 cells per well and cultured for 24 h under standard conditions (with 2 mL of the medium). Next, cells were exposed to the tested compounds at concentrations corresponding to IC50. After 24 h of treatment, control and treated cells were then collected (washed with cold PBS and treated with accutase), transferred to Eppendorf tubes and centrifuged (1100 rpm, 5 min, 5 °C). The supernatant was discarded, cold PBS was added (1 mL) and the cells were centrifuged (1200 rpm, 5 min). The solution was removed, and the cells were fixed in cold 70% ethanol at 4 °C. Prior to the analysis, the cells were centrifuged (3600 rpm, 5 min) and washed twice with PBS. The solution was discarded, the pellets were suspended in 200 µL of PBS and incubated with ribonuclease at 37 °C (25 µL, final concentration in a sample was 100 µg/mL) for 30 min and stained with propidine iodide (12.5 µL, final concentration in a sample was 50 µg/mL) in darkness at room temperature for additional 20 min. The final volume of the sample was 250 µL.
DNA content and the number of cells in individual cell cycle phases was measured by flow cytometry (CytoFlex, blue laser, 480 nm, Beckman-Coulter, Indianapolis, IN, USA). Cells (20,000) were analyzed from each sample. The percentage of cells in each cell cycle phase was calculated from live cells that were expressed as 100%. The data are presented as the mean ± SD of three independent experiments. The coefficients of variation for the assay were established (CV = 0.37–11.78%, depending on the cell population).

[5] abbreviates: Eadie-Hofstee analysis, transporter I.
The mark [6] stands for this setting: Eadie-Hofstee analysis, transporter I, read-out: Km, transporter I, MCF-7.
The mark [7] stands for this setting: Eadie-Hofstee analysis, transporter II.
Where [8] appears, read: Eadie-Hofstee analysis, transporter II, read-out: Km, transporter II, MCF-7.
Where [9] appears, read: compound and inhibitor 400 and 800 µmol/L, 10 min, 37 °C.
[10] abbreviates: IC50 (Comp. 1 13, Comp. 4 430, Comp. 7 55 μmol/L).
Where [11] appears, read: Michaelis-Menten curve, read-out: Km MCF-7 (Michaelis Menten curves).

SMILES strings stand for the structures. Read-outs that look alike come from different tables or passages of the source.

Take `CN(C)C(=N)N=C(N)NS(=O)(=O)c1ccccc1Cl` [Compound 1]: in the data set on MCF-7 cells [1], the “uptake into MCF-7 cells” value is recorded as 1.79 ± 0.79 nmol/min/mg protein and the “uptake in MCF-7 cells relative to metformin” value was “approximately 14 fold”. In addition, the “Vmax, transporter I, MCF-7” value with MCF-7 cells [1] (setting [5]) is 18.53 ± 2.41 nmol/min/mg. In addition, the Km with MCF-7 cells [1] (setting [6]) is 6.72 ± 0.982 mM. The “Vmax, transporter II, MCF-7” value in the data set on MCF-7 cells [1] (setting [7]) is 62.84 ± 21.37 nmol/min/mg. Also, the Km in the data set on MCF-7 cells [1] (setting [8]) came to 21.1 ± 7.73 mM. Moreover, in the data set on MDA-MB-231 cells [2] (setting [9]), the “uptake in the presence of cimetidine, MDA-MB-231” value is “No statistically significant changes”; the “uptake in the presence of disopyramide, MDA-MB-231” value is given as “significantly higher uptake”; the “uptake in the presence of lopinavir, MDA-MB-231” value is “significantly higher uptake”; the “uptake in the presence of methenamine, MDA-MB-231” value is listed as “No statistically significant changes”. Also, in the data set with MDA-MB-231 cells [2], the “interactions with OCT, PMAT and MATE1 transporters, MDA-MB-231” value (shortened to “interactions with OCT”) is recorded as “OCT1, PMAT”. The viability at 3000 µM with MDA-MB-231 cells [3] is ~60%. Further, in the data set with MCF-7 cells [4] (setting [10]), the G0/G1 is given as 38.76 ± 0.80%, the G2/M is listed as 17.54 ± 0.48 %, the S turned out to be 35.45 ± 0.23 % and the “Sub G0/G1” value was 8.28 ± 1.04 %. In the data set on MCF-7 cells [4] (IC50 (Comp. 1 13, Comp. 4 430, Comp. 7 55 µmol/L), listed as Comp. 1), this compound came in with a G0/G1 of 38.76 ± 0.80 %.
`CN(C)C(=N)N=C(N)NS(=O)(=O)c1ccccc1Br` [Compound 4]: the “Vmax, transporter I, MCF-7” value with MCF-7 cells [1] (setting [5]) is reported as 0.031 ± 0.002 nmol/min/mg. For the same compound, the Michaelis constant (Km) in the data set on MCF-7 cells [1] (setting [6]) was determined as 1.54 ± 0.22 mM. Also, the “Vmax, transporter II, MCF-7” value in the data set on MCF-7 cells [1] (setting [7]) turned out to be 0.153 ± 0.022 nmol/min/mg. The Km in the data set with MCF-7 cells [1] (setting [8]) stood at 8.37 ± 1.43 mM. In addition, the “Vmax MCF-7 (Michaelis Menten curves)” value with MCF-7 cells [1] (Michaelis-Menten curve) is listed as 0.049 ± 0.02 nmol/min/mg. Also, in the data set with MCF-7 cells [1] (setting [11]), the Km came to 2.47 ± 0.652 mM. For the same compound, in the data set on MDA-MB-231 cells [2] (setting [9]), the “uptake in the presence of cimetidine, MDA-MB-231” value was “significantly decreased”; the “uptake in the presence of disopyramide, MDA-MB-231” value is “significantly decreased”; the “uptake in the presence of lopinavir, MDA-MB-231” value is reported as “increased”. The “interactions with OCT” value with MDA-MB-231 cells [2] is “OCT1, OCT3, PMAT”. Besides, the viability at 3000 µM in the data set with MDA-MB-231 cells [3] is ~56.4%. In addition, in the data set on MCF-7 cells [4] (setting [10]), the G0/G1 is on record as 73.69 ± 0.26 %, the G2/M is listed as 8.21 ± 0.03 %, the S was 15.16 ± 0.54 % and the “Sub G0/G1” value was determined as 2.98 ± 0.40%.
In the case of `CN(C)C(=N)N=C(N)NS(=O)(=O)c1ccccc1F` [Compound 7], in the data set on MCF-7 cells [1], the “uptake into MCF-7 cells” value is reported as 1.592 ± 0.943 nmol/min/mg protein and the “uptake in MCF-7 cells relative to metformin” value is on record as “approximately 14 fold”. In addition, in the data set on MCF-7 cells [1] (setting [5]), the “Vmax, transporter I, MCF-7” value is 5.303 ± 1.334 nmol/min/mg. In addition, in the data set on MCF-7 cells [1] (setting [6]), the Km was found to be 2.13 ± 0.815 mM. For the same compound, in the data set with MCF-7 cells [1] (setting [7]), the “Vmax, transporter II, MCF-7” value came out at 22.43 ± 12.78 nmol/min/mg. Moreover, the Km in the data set with MCF-7 cells [1] (setting [8]) is 6.14 ± 4.6 mM. Moreover, in the data set on MCF-7 cells [1] (Michaelis-Menten curve), the “Vmax MCF-7 (Michaelis Menten curves)” value turned out to be 23.92 ± 7.20 nmol/min/mg. The Km in the data set with MCF-7 cells [1] (setting [11]) was 10.8 ± 5.13 mM. Also, the “interactions with OCT” value in the data set with MDA-MB-231 cells [2] was “OCT1, OCT3”. Moreover, the IC50 with MDA-MB-231 cells [3] (MDA-MB-231, mean ± SD (n = 6–8), read-out: IC50 inhibition of MDA-MB-231 cells' viability) turned out to be 2590 ± 150 µM. In addition, in the data set on MCF-7 cells [4] (setting [10]), the G0/G1 came out at 56.48 ± 3.34 %, the G2/M was found to be 15.43 ± 0.93 %, the S is listed as 10.34 ± 0.74 % and the “Sub G0/G1” value is 17.85 ± 2.08 %.

The record behind these values is paper PMC7177633, “Effective Cellular Transport of Ortho-Halogenated Sulfonamide Derivatives of Metformin Is Related to Improved Antiproliferative Activity and Apoptosis Induction in MCF-7 Cells” (International Journal of Molecular Sciences, 2020).
